Reference: publication PMC7038139, “Novel Peptide CM 7 Targeted c-Met with Antitumor Activity” (Molecules, 2020)
“Also recorded” adds a separate entry of the source.

Tests used:
[1] = test system: MDCK cells; assay: Cell scatter assay (HGF-induced); assay type: cell-based, canine; conditions: HGF 100 ng/mL, 24 h, 37 °C
Experimental: MDCK cells were detached from the tissue culture plate and seeded in 96-well plates at the final concentration of 1.5 × 10^3 cells/well overnight. Different concentrations of CM 7 without or with HGF (100 ng/mL) were added to the preset wells. After incubating for 24 h at 37 °C and 5% CO2, 4% paraformaldehyde was used to fix the cells, which were then stained with 0.2% crystal violet. The plates were washed with clean water. When dried, an Olympus IX53 microscope was used to capture the images.

[2] = test system: MKN-45 tumor xenografts; assay: MKN-45 xenograft antitumor activity in nude mice; assay type: in vivo, Human
Experimental: (§1) Four-to-five-week-old female Balb/c nude mice, housed in specific pathogen-free conditions, were used to evaluate antitumor activity in vivo. All animal studies were performed according to the institutional ethical guidelines for animal care.
(§2) MKN-45 cells at a density of 5 × 10^6 in 200 μL were injected subcutaneously into the flank of the mice. CM 7 (5, 10, or 20 mg/kg) was injected subcutaneously for each group twice a day for four weeks. As a positive control, Crizotinib (50 mg/kg) was given to tumor-bearing mice by gavage once a day for a total of 28 days. The tumor volume was measured with calipers in two dimensions: tumor volume = 1/2 × a × b^2, where a is the length of the tumor, and b is the width of the tumor. All of the mice were sacrificed on day 42, and the tumor tissue was isolated and weighed.

[3] = Body weight / tolerability in tumor-bearing mice; assay type: in vivo, Balb/c nude mice; conditions: each peptide group (5, 10, 20 mg/kg s.c. twice a day, 28 days)
Experimental: as §1, §2
Figure S1: The chemical structure, molecular mass, and purity of peptide FITC-CM 7. […] (C) The purity of peptide FITC-CM 7 was determined by high-performance liquid chromatography (HPLC) to be 97.3%. […] (C) The purity of peptide FITC-CM 7 was determined by HPLC to be 96.7%. Figure S3: The mean body weight of tumor-bearing mice treated daily for four weeks with vehicle (0.2% DMSO) or Crizotinib (50 mg/kg) by gavage, and the tested peptide CM 7 or vehicle (PBS) that was subcutaneously injected twice a day for four weeks was measured every other day during the study. […]

DQIIANN [CM 7, Novel peptide DQIIANN targeting the tyrosine kinase receptor c-Met]
Inhibition of growth of cell pseudopodia ([1]; 1 μM): completely inhibited | Inhibition of HGF-induced cell scattering ([1]; dose-dependent): moderate regulation; also recorded: remarkably inhibit the HGF-induced cell scattering of MDCK cells in a dose-dependent manner | Inhibition of tumor growth versus vehicle (PBS) ([2]; 20 mg/kg s.c. twice a day, 28 days, n = 5–6): significantly inhibited tumor growth | Inhibition of tumor growth relative to Crizotinib ([2]; CM 7 20 mg/kg s.c. twice a day vs Crizotinib 50 mg/kg by gavage daily, 28 days): weaker than the positive control group (Crizotinib) | Growth inhibition rate of tumor masses ([2]; xenograft mouse model using MKN-45 cells, dose not printed with the value (5, 10, 20 mg/kg s.c. twice a day tested)): 62% | Weight loss of mice [3]: no significant weight loss | Tolerability / toxicity ([3]; from body weight): well tolerated and slightly or nontoxic
